Laboratory results taken from patent US11524960B2, “Heterobicyclic inhibitors of MAT2A and methods of use for treating cancer” (AGIOS PHARMACEUTICALS, INC., priority 2018, dated 2022).

Assays:
HCT116 MTAP+/+ = experiment: Inhibition of cellular proliferation (Cell Titer Glo), HCT116 MTAP+/+; type: cell-based, human; settings: Homo sapiens, HCT-116, 96 h, 4 days, IC50 score, read-out: 4 Day Relative Growth Inhibition (MTAP +/+; Example 277)
Method: (§1) Test compound impact on cancer cell growth was assessed by treating cancer cells with compound for 4 days and then measuring proliferation using an ATP-based cell proliferation readout (Cell Titer Glo, Promega Corporation).
(§2) In a typical assay an isogenic pair of HCT116 human colon carcinoma cell lines which vary only in MTAP deletion status (HCT116 MTAP+/+ and HCT116 MTAP−/−) were plated in 96-well dishes at appropriate cell density. Following 24 hours, cells were then treated with the candidate MAT2A inhibitor. Prior to addition to cells, the compound was first serially diluted in 100% DMSO, typically as a 3-fold serial dilution starting at 500× top dose with 10 dose points including DMSO only control. Compound was then transferred to a working stock plate in cell culture media by adding 5 μl of compound in DMSO to 495 μl of cell culture media. This working stock was then added to cells via a further 5-fold dilution, by adding 25 μl of working stock to 100 μl of cells in culture media. Following compound addition, cells were incubated at 37° C./5% C02 for 4 days.
(§3) To measure inhibition of cellular proliferation, cells were allowed to equilibrate to room temperature for 30 minutes, and were then treated with 125 μl of Cell Titer Glo reagent. The plate was then covered with aluminum foil and shaken for 15 minutes to ensure complete mixing and full cell lysis. Luminescent signal was then measured using a plate-based luminometer Veritas version 1.9.2 using ATP standard curve to confirm assay reproducibility from run to run. This luminescence measure was converted to a proliferation index by subtracting from each data point the ATP luminescence signal measured from a bank (no cells) well and dividing by the ATP luminescence signal measured in 0.2% DMSO control well adjusted for signal in blank well. Compound activity was then represented as a percentage change in proliferation relative to a within-plate DMSO control against log10 of compound concentration in molar (M) units.

HCT116 MTAP−/− = experiment: Inhibition of cellular proliferation (Cell Titer Glo), HCT116 MTAP−/−; type: cell-based, human; settings: Homo sapiens, HCT-116, 96 h, 4 days, IC50 score, read-out: 4 Day Relative Growth Inhibition (MTAP −/−; Example 277)
Method: as §1, §2, §3

MAT2A homodimer = molecular target: T1, MAT2A homodimer (Homo sapiens, UniProt P31153); experiment: Biochemical assay: inhibition of MAT2A (phosphate release, PiColorLock Gold); settings: MAT2A IC50 score; read-out: Enzyme Inhibition (Example 275)
T1 construct: inferred from Ni sepharose purification and imidazole elution; made in house; host or cells: Sf9 insect cells, recombinant baculovirus (Bac to Bac, pFASTBAC1)
T1 sequence (P31153 whole entry): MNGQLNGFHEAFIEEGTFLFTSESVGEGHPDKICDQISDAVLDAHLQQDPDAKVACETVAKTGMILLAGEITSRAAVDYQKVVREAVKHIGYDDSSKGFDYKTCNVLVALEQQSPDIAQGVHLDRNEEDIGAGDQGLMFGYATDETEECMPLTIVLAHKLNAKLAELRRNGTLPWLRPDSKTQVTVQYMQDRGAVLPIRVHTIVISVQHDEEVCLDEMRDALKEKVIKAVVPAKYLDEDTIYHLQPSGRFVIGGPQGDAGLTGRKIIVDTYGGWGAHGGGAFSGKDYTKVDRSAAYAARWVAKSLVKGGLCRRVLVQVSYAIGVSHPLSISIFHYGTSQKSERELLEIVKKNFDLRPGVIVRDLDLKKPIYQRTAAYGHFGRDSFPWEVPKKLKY
Method in brief: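 Phosphate formed alongside SAM was read with PiColorLock Gold and quantified against a potassium phosphate standard curve. Reactions ran 60 min at 25 °C after adding a substrate mix of 500 μM ATP and 400 μM L-methionine (mix concentrations). Compound had first been preincubated 60 min with recombinant Sf9-derived MAT2A homodimer ([…]) in pH 8.0 Tris buffer containing MgCl2, KCl, EDTA and BSA.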

[1] = system: SAM in HCT116 human colon carcinoma cell line engineered to delete the MTAP gene (MTAP −/−); experiment: Cellular assay of target engagement (SAM) by LC-MS/MS; type: cell-based; settings: Homo sapiens, HCT-116, 72 h, IC50 score, read-out: Cell 72 h SAM Inhibition (MTAP −/−; Example 276)
Method: Measurement of MAT2A activity in cells was made by direct quantitation of the abundance of the product of its enzymatic activity, SAM. Cancer cells were treated with candidate MAT2A inhibitors for a suitable incubation period, and the cells were then lysed using a reagent which quenched any further enzyme activity. Soluble metabolites including SAM were collected and SAM itself was directly measured from the lysate using quantitative LC-MS/MS.
A typical assay was performed using an HCT116 human colon carcinoma cell line which was genetically engineered to delete the MTAP gene (commercially available from Horizon Discovery). This cell line was utilized because it was determined that loss of the MTAP gene predicts sensitivity to MAT2A inhibitors. Cells were plated in 96-well dishes at appropriate cell density. Following 24 hours, cells were then treated with the candidate MAT2A inhibitor. Prior to addition to cells, the compound was first serially diluted in 100% DMSO, typically as a 3-fold serial dilution starting at 500× top dose with 10 dose points including DMSO only control. Compound was then transferred to a working stock plate in cell culture media by adding 5 μl of compound in DMSO to 495 μl of cell culture media. This working stock was then added to cells via a further 5-fold dilution, by adding 25 μl of working stock to 100 μl of cells in culture media. Following compound addition, cells were incubated at 37° C./5% CO2 for 72 hrs.
To quantitate SAM levels following compound treatment, cells were gently washed once in Ammonium Carbonate buffer (75 mM at pH 7.4), placed on dry ice, and lysed with metabolite extraction buffer (80% cold methanol and 20% water (v/v) with acetic acid at 1 M final concentration with 200 ng/mL deuterated d3-SAM as internal control). Following centrifugation at 4° C. at 3,200 rpm for 30 minutes, the supernatant was collected and stored at −80° C. until analysis by Liquid Chromatography with tandem Mass Spectrometry (LC-MS/MS). LC-MS/MS analysis was performed using an API6500 Mass Spectrometer (Sciex, Framingham, Mass., USA) operating in positive ion spray mode and equipped with a Waters UPLC Acquity (Waters, Milford, Mass., USA) BEH Amide column. Multiple Reaction Monitoring data was acquired for SAM and the d3-SAM standard, using a mass transition pair at m/z 399.2→250.1 and 402.2→250.1, respectively. In a typical LC-MS/MS analysis, the initial flow rate was 0.5 ml/min of 25% mobile phase A (acetonitrile and water at 5:95 (v/v) with 1% formic acid and 10 mM ammonium acetate) and 75% mobile phase B (acetonitrile and water at 95:5 (v/v) with 1% formic acid and 10 mM ammonium acetate), 0.2-0.5 minutes with 75%-35% mobile phase B, 25%-65% mobile phase A, at 0.5 min 65% mobile phase A and 35% mobile phase B, 1.0-1.1 minutes with 35%-75% mobile phase B, 65%-25% mobile phase A, at 1.1 min 25% mobile phase A and 75% mobile phase B with a total run time of 1.5 minutes.

IC50 (HCT116 MTAP+/+) [nM]	IC50 (HCT116 MTAP−/−) [nM]	IC50 (MAT2A homodimer) [nM]	IC50 [1] [nM]	SMILES
100 to 10000	100 to 10000	100 to 1000	< 100	CCOc1ccc2cn(-c3ccc4nn(CCS(C)(=O)=O)cc4c3)c(=O)c(-c3ccc(Cl)cc3)c2n1 [Example 225, 8-(4-chlorophenyl)-2-ethoxy-6-(2-(2-(methylsulfonyl)ethyl)-2H-indazol-5-yl)-1,6-naphthyridin-7(6H)-one]
100 to 10000	< 100	< 100	< 100	COc1ccc(-c2c(=O)n(-c3ccc4nn(C)cc4c3)cc3ncc(OCC(F)F)nc23)cc1 [Example 141-A]
> 10000	< 100	< 100	< 100	CCOc1cnc2cn(-c3ccc4nn(C)cc4c3)c(=O)c(-c3ccc(OC)cc3)c2n1 [Example 140-A]
100 to 10000	< 100	< 100	< 100	CCOc1cnc2cn(-c3ccc4nn(C)cc4c3)c(=O)c(-c3ccc(OC(F)F)cc3)c2n1 [Example 145-A]
100 to 10000	< 100	< 100	< 100	[2H]C([2H])([2H])Oc1ccc(-c2c(=O)n(-c3ccc4nn(C)cc4c3)cc3ccc(OCC(F)F)nc23)cc1 [Example 115-A]
> 10000	< 100	< 100	< 100	Cc1c2cc(-n3cc4cnc(NCC(F)(F)F)nc4c(-c4ccc(Cl)cc4)c3=O)ccc2nn1C [Example 132, 8-(4-chlorophenyl)-6-(2,3-dimethyl-2H-indazol-5-yl)-2-(2,2,2-trifluoroethylamino)pyrido[4,3-d]pyrimidin-7(6)-one]
100 to 10000	100 to 10000	< 100	100 to 1000	COc1ccc(-c2c(=O)n(-c3ccc(OC)cc3)cc3cnc(NCC(F)(F)F)nc23)cc1 [Example 200, 6,8-bis(4-methoxyphenyl)-2-(2,2,2-trifluoroethylamino)pyrido[4,3-d]pyrimidin-7(6H)-one]
100 to 10000	< 100	< 100	< 100	CCOc1ccc2cn(-c3ccc4nn(C)cc4c3)c(=O)c(-c3ccc(OC(F)F)nc3)c2n1 [Example 218, 8-(6-(difluoromethoxy)pyridin-3-yl)-2-ethoxy-6-(2-methyl-2H-indazol-5-yl)-1,6-naphthyridin-7(6H)-one]
> 10000	100 to 10000	< 100	100 to 1000	COc1ccc(-c2c(=O)n(-c3ccc4nccnc4c3)cc3cnc(NCC(F)(F)F)nc23)cc1 [Example 144, 8-(4-methoxyphenyl)-6-(quinoxalin-6-yl)-2-((2,2,2-trifluoroethyl)amino)pyrido[4,3-d]pyrimidin-7(6H)-one]
100 to 10000	< 100	< 100	< 100	Cn1cc2cc(-n3cc4ccc(OCC(F)F)nc4c(-c4ccc(OC(F)(F)F)nc4)c3=O)ccc2n1 [Example 125-A]
100 to 10000	< 100	< 100	< 100	CCOc1ccc2cn(-c3ccc(OC)cc3)c(=O)c(-c3ccc(OC(F)F)cc3)c2n1 [Example 250, 8-(4-(difluoromethoxy)phenyl)-2-ethoxy-6-(4-methoxyphenyl)-1,6-naphthyridin-7(6H)-one]
100 to 10000	< 100	< 100	< 100	CCOc1ccc2cn(-c3ccc4nn(C)cc4c3)c(=O)c(-c3ccc(C(F)(F)F)nc3)c2n1 [Example 220, 2-ethoxy-6-(2-methyl-2H-indazol-5-yl)-8-(6-(trifluoromethyl)pyridin-3-yl)-1,6-naphthyridin-7(6H)-one]
> 10000	100 to 10000	< 100	100 to 1000	COc1ccc(-n2cc3cnc(NCC(F)(F)F)nc3c(-c3ccc(C4CC4)cc3)c2=O)cc1 [Example 167, 8-(4-cyclopropylphenyl)-6-(4-methoxyphenyl)-2-((2,2,2-trifluoroethyl)amino)pyrido[4,3-d]pyrimidin-7(6)-one]
100 to 10000	100 to 10000	< 100	< 100	CCOc1ccc2cn(-c3ccc(=O)n(CCS(C)(=O)=O)c3)c(=O)c(-c3ccc(OC(F)F)cc3)c2n1 [Example 249, 8-(4-(difluoromethoxy)phenyl)-2-ethoxy-6-(1-(2-(methylsulfonyl)ethyl)-6-oxo-1,6-dihydropyridin-3-yl)-1,6-naphthyridin-7(6H)-one]
> 10000	< 100	< 100	< 100	Cc1nc2ccc(-n3cc4cnc(NCC(F)(F)F)nc4c(-c4ccc(Cl)cc4)c3=O)cc2n1C [Example 124, 8-(4-chlorophenyl)-6-(1,2-dimethyl-1H-benzo[d]imidazol-6-yl)-2-((2,2,2-trifluoroethyl)amino)pyrido[4,3-d]pyrimidin-7(6H)-one]
> 10000	100 to 10000	< 100	< 100	CCOc1ccc2cn(-c3ccc4ncccc4c3)c(=O)c(-c3ccc(C4CC4)nc3)c2n1 [Example 231, 8-(6-cyclopropylpyridin-3-yl)-2-ethoxy-6-(quinolin-6-yl)-1,6-naphthyridin-7(6H)-one]
> 10000	< 100	< 100	< 100	Cc1c2cc(-n3cc4cnc(NCC(F)(F)F)nc4c(-c4ccc(OC(F)F)cc4)c3=O)ccc2nn1C [Example 158, 8-(4-(difluoromethoxy)phenyl)-6-(2,3-dimethyl-2H-indazol-5-yl)-2-((2,2,2-trifluoroethyl)amino)pyrido[4,3-d]pyrimidin-7(6H)-one]
100 to 10000	< 100	< 100	< 100	CCOc1ccc2cn(-c3ccc4ncn(C)c4c3)c(=O)c(-c3ccc(OC(F)F)nc3)c2n1 [Example 229, 8-(6-(difluoromethoxy)pyridin-3-yl)-2-ethoxy-6-(1-methyl-1H-benzo[d]imidazol-6-yl)-1,6-naphthyridin-7(6H)-one]
